In one assay the test system is KURAMOCHI
The experiment in a line: drug sensitivity score (DSS2) on cancer cell count; higher = more sensitive; extreme values may be limits of the assay. As to conditions: 72 h. The method, boiled down:
(§1)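 Ovarian cancer cells were grown alone or in 1:1 direct co-culture with lung or skin fibroblasts. They were plated onto 384-well plates pre-spotted acoustically with 528 approved and investigational compounds at 5 concentrations, then treated for 72 h. Cells were fixed, immunostained for CK8/18 with Hoechst, and imaged at 10× (4 fields) to count cancer cells. A drug sensitivity score (DSS2) was derived in Breeze from 4-parameter logistic fits, with screen quality checked by Z'.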

For a further assay, the system named is OVCAR8. The assay is described as above. As to conditions: 72 h. Put shortly: as §1
The mark [1] stands for this setting: co-cultured fibroblast: BJHTERT.
The mark [2] stands for this setting: co-cultured fibroblast: none (monoculture).

Take `CCN(CC)CCN(Cc1ccc(-c2ccc(C(F)(F)F)cc2)cc1)C(=O)Cn1c(SCc2ccc(F)cc2)nc(=O)c2c1CCC2` [Darapladib]: the drug sensitivity score was 0 DSS in the assay on KURAMOCHI (setting [1]); 0 DSS in the assay on KURAMOCHI (co-cultured fibroblast: WI38); 0 DSS with KURAMOCHI (setting [2]); 0 DSS in the assay on OVCAR8 (setting [1]); 8.3 DSS with OVCAR8 (co-cultured fibroblast: WI38); 0.4 DSS in the assay on OVCAR8 (setting [2]).

For the compound `CC[C@H](C)C(=O)O[C@H]1C[C@H](O)C=C2C=C[C@H](C)[C@H](CC[C@@H](O)C[C@@H](O)CC(=O)O)[C@H]21` [Pravastatin], the drug sensitivity score worked out at 0 DSS in the assay with KURAMOCHI (setting [1]); 0 DSS in the assay with KURAMOCHI (co-cultured fibroblast: WI38); 0 DSS in the assay on KURAMOCHI (setting [2]); 0 DSS in the assay with OVCAR8 (setting [1]); 1.9 DSS with OVCAR8 (co-cultured fibroblast: WI38); 0 DSS in the assay on OVCAR8 (setting [2]).

As to `Cn1cc(C2=C(c3cn(C4CCN(Cc5ccccn5)CC4)c4ccccc34)C(=O)NC2=O)c2ccccc21` [Enzastaurin], the drug sensitivity score in the assay on KURAMOCHI (setting [1]) is 0 DSS; in the assay on KURAMOCHI (co-cultured fibroblast: WI38), 0.6 DSS; in the assay on KURAMOCHI (setting [2]), 0 DSS; in the assay with OVCAR8 (setting [1]) it was 0 DSS; with OVCAR8 (co-cultured fibroblast: WI38) it was 6.4 DSS; with OVCAR8 (setting [2]) it was 0 DSS.

As for `COc1ccc(C[C@H](NC(=O)[C@H](C)NC(=O)CN2CCOCC2)C(=O)N[C@@H](Cc2ccccc2)C(=O)C2(C)CO2)cc1` (stereo in doubt) [ONX-0914], the drug sensitivity score is 15.7 DSS in the assay with KURAMOCHI (setting [1]); 17.7 DSS in the assay with KURAMOCHI (co-cultured fibroblast: WI38); 17.6 DSS in the assay on KURAMOCHI (setting [2]); 8.4 DSS with OVCAR8 (setting [1]); 16.1 DSS with OVCAR8 (co-cultured fibroblast: WI38); 17.8 DSS in the assay on OVCAR8 (setting [2]).

Take `CN1C(=O)N[C@H](Cc2c[nH]c3c(Cl)cccc23)C1=O` [Necrostatin 2]: the drug sensitivity score in the assay with KURAMOCHI (setting [1]), in the assay on KURAMOCHI (co-cultured fibroblast: WI38), in the assay on KURAMOCHI (setting [2]), in the assay with OVCAR8 (setting [1]), in the assay with OVCAR8 (co-cultured fibroblast: WI38) and in the assay on OVCAR8 (setting [2]) was 0 DSS each time.

`COc1cc(NS(C)(=O)=O)ccc1Nc1c2ccccc2nc2ccccc12` [Amsacrine]: the drug sensitivity score is 14.4 DSS in the assay with KURAMOCHI (setting [1]); 18.8 DSS in the assay with KURAMOCHI (co-cultured fibroblast: WI38); 21.8 DSS with KURAMOCHI (setting [2]); 20.1 DSS in the assay with OVCAR8 (setting [1]); 19.2 DSS in the assay on OVCAR8 (co-cultured fibroblast: WI38); 23.8 DSS in the assay with OVCAR8 (setting [2]).

Take `CCOc1ccn(-c2ccc(F)cc2)c(=O)c1C(=O)Nc1ccc(Oc2ccnc(N)c2Cl)c(F)c1`: the drug sensitivity score stood at 0.6 DSS with KURAMOCHI (setting [1]); 0 DSS with KURAMOCHI (co-cultured fibroblast: WI38); 0 DSS in the assay on KURAMOCHI (setting [2]); 0 DSS in the assay with OVCAR8 (setting [1]); 0 DSS in the assay with OVCAR8 (co-cultured fibroblast: WI38); 0 DSS in the assay with OVCAR8 (setting [2]).

With `COc1cc(C(=O)O)ccc1NC(=O)[C@@H]1N[C@@H](CC(C)(C)C)[C@](C#N)(c2ccc(Cl)cc2F)[C@H]1c1cccc(Cl)c1F` [Idasanutlin], the drug sensitivity score with KURAMOCHI (setting [1]) came to 0 DSS; in the assay with KURAMOCHI (co-cultured fibroblast: WI38), 1.1 DSS; in the assay on KURAMOCHI (setting [2]) it was 0 DSS; in the assay with OVCAR8 (setting [1]), 1.3 DSS; in the assay with OVCAR8 (co-cultured fibroblast: WI38), 4.2 DSS; with OVCAR8 (setting [2]) it was 0 DSS.

For the compound `O=C(/C=C/c1cccnc1)NCCCCC1CCN(C(=O)c2ccccc2)CC1` [Daporinad], the drug sensitivity score was determined as 16 DSS in the assay with KURAMOCHI (setting [1]); 12.6 DSS with KURAMOCHI (co-cultured fibroblast: WI38); 20.4 DSS in the assay with KURAMOCHI (setting [2]); 22.5 DSS in the assay with OVCAR8 (setting [1]); 22.2 DSS with OVCAR8 (co-cultured fibroblast: WI38); 27.1 DSS in the assay with OVCAR8 (setting [2]).

In the case of `COc1cc(N2CCN(C)CC2)ccc1Nc1nccc(-c2cn(C)c3cnccc23)n1` [AZ191], the drug sensitivity score in the assay on KURAMOCHI (setting [1]) turned out to be 5.9 DSS; with KURAMOCHI (co-cultured fibroblast: WI38), 2.3 DSS; with KURAMOCHI (setting [2]) it was 6.9 DSS; in the assay with OVCAR8 (setting [1]), 3.3 DSS; with OVCAR8 (co-cultured fibroblast: WI38), 2 DSS; in the assay with OVCAR8 (setting [2]) it was 1.3 DSS.

Turning to `Cc1nc(-c2cn3c(n2)-c2ccc(-c4cnn(C(C)(C)C(N)=O)c4)cc2OCC3)n(C(C)C)n1` [Taselisib], the drug sensitivity score is 9.2 DSS with KURAMOCHI (setting [1]); 4.7 DSS in the assay with KURAMOCHI (co-cultured fibroblast: WI38); 10.7 DSS in the assay with KURAMOCHI (setting [2]); 3.1 DSS with OVCAR8 (setting [1]); 0 DSS in the assay on OVCAR8 (co-cultured fibroblast: WI38); 3.3 DSS with OVCAR8 (setting [2]).

Take `Cc1cc(OCc2nnc(SC3CCCC3)n2-c2cccnc2)ccc1-c1ccc(S(C)(=O)=O)cc1` [NMS-873]: the drug sensitivity score with KURAMOCHI (setting [1]) was determined as 9 DSS; in the assay with KURAMOCHI (co-cultured fibroblast: WI38), 9 DSS; in the assay with KURAMOCHI (setting [2]), 8.9 DSS; in the assay with OVCAR8 (setting [1]) it was 5.8 DSS; with OVCAR8 (co-cultured fibroblast: WI38), 4.7 DSS; with OVCAR8 (setting [2]), 10.3 DSS.

The values are drawn from the supplement of paper PMC12420376.
